Results from the NIST ThermoML archive (doi:10.1016/j.fluid.2006.12.010).
Numbers after ± are expanded uncertainties.

Columns and labels:
[1] = refractive index (Na D-line) (dimensionless); details: 101.33 kPa, Liquid, Standard Abbe refractometry
[2] = for mass density: 101.33 kPa

**Q.** With `Cc1ccccc1O` [2-methylphenol] as the compound, how does the refractive index ([1]; 298.15 K) read?
**A.** 1.5467 ± 0.0008

**Q.** And the mass density ([2]; 298.15 K, Liquid)?
**A.** 1046 ± 1.8 kg/m3

**Q.** And the “vapor or sublimation pressure” value ([2]; 463.55 K, Liquid)?
**A.** 94.95 ± 5 kPa

**Q.** With `Cc1cccc(O)c1` [3-methylphenol] as the compound, how does the refractive index ([1]; 298.15 K) read?
**A.** 1.5395 ± 0.0008

**Q.** And the mass density ([2]; 298.15 K, Liquid)?
**A.** 1030 ± 1.8 kg/m3

**Q.** And the “vapor or sublimation pressure” value ([2]; 473.55 K, Liquid)?
**A.** 94.95 ± 5 kPa

**Q.** With `Cc1ccc(O)cc1` [4-methylphenol] as the compound, how does the refractive index ([1]; 298.15 K) read?
**A.** 1.5391 ± 0.0008

**Q.** What about the mass density ([2]; 298.15 K, Crystal) of the same compound?
**A.** 1154 ± 2.1 kg/m3

**Q.** And the “vapor or sublimation pressure” value ([2]; 475.35 K, Liquid)?
**A.** 94.95 ± 5 kPa

**Q.** What does the source list for `Brc1ccccc1` [bromobenzene]?
**A.** refractive index ([1]; 293.15 K): 1.5571 ± 0.0008; mass density ([2]; 293.15 K, Liquid): 1488.2 ± 2.8 kg/m3; vapor or sublimation pressure ([2]; 426.85 K, Liquid): 94.95 ± 5 kPa

**Q.** What does the source list for `CN(C)C=O` [dimethylformamide]?
**A.** refractive index ([1]; 293.15 K): 1.4305 ± 0.0008; mass density ([2]; 293.15 K, Liquid): 948.7 ± 1.6 kg/m3; vapor or sublimation pressure ([2]; 424.15 K, Liquid): 94.95 ± 5 kPa

**Q.** Which refractive index ([1]; 298.15 K) does the source give for `O=[N+]([O-])c1ccccc1` [nitrobenzene] here?
**A.** 1.55 ± 0.0008

**Q.** What about the mass density ([2]; 298.15 K, Liquid) of the same compound?
**A.** 1198 ± 2.2 kg/m3

**Q.** What about the “vapor or sublimation pressure” value ([2]; 481.15 K, Liquid) of the same compound?
**A.** 94.95 ± 5 kPa
